# Source: ChEMBL document CHEMBL4507286 (2021)
# Experiments:
# [1] = tested on: Tyrosine-protein kinase ABL1 (Homo sapiens), P00519 [E255K]
# [2] = tested on: Tyrosine-protein kinase ABL1 (Homo sapiens), P00519 [F317I]
# [3] = tested on: Tyrosine-protein kinase ABL1 (Homo sapiens), P00519 [F317I]; remark: listed apart in the source
# [4] = target: ALK tyrosine kinase receptor (Homo sapiens) (UniProt Q9UM73)
# [5] = target: Mitogen-activated protein kinase kinase kinase 5 (Homo sapiens) (UniProt Q99683)
# [6] = target: Cyclin-dependent kinase 13 (Homo sapiens) (UniProt Q14004)
# [7] = target: Cyclin-dependent kinase 4 (Homo sapiens) (UniProt P11802)
# Chain of Cyclin-dependent kinase 4 (Homo sapiens) (P11802 whole entry): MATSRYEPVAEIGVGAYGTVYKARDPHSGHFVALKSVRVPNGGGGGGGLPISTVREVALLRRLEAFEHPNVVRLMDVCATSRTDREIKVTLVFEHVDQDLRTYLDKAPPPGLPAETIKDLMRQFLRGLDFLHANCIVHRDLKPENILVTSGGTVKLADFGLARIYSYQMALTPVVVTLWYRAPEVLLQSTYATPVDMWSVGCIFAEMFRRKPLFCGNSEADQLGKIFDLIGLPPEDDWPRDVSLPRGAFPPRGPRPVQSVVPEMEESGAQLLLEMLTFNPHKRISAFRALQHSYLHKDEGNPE
# [8] = target: Cyclin-dependent kinase 9 (Homo sapiens) (UniProt P50750)
# [9] = target: Casein kinase I isoform gamma-1 (Homo sapiens) (UniProt Q9HCP0)
# [10] = target: Discoidin domain-containing receptor 2 (Homo sapiens) (UniProt Q16832)
# [11] = target: Dual specificity tyrosine-phosphorylation-regulated kinase 2 (Homo sapiens) (UniProt Q92630)
# [12] = target: Ephrin type-A receptor 5 (Homo sapiens) (UniProt P54756)
# [13] = target: Rhodopsin kinase GRK7 (Homo sapiens) (UniProt Q8WTQ7)
# [14] = target: Homeodomain-interacting protein kinase 3 (Homo sapiens) (UniProt Q9H422)
# [15] = target: Interleukin-1 receptor-associated kinase 4 (Homo sapiens) (UniProt Q9NWZ3)
# [16] = target: Tyrosine-protein kinase Lck (Homo sapiens) (UniProt P06239)
# [17] = target: LIM domain kinase 2 (Homo sapiens) (UniProt P53671)
# [18] = target: Mitogen-activated protein kinase kinase kinase 13 (Homo sapiens) (UniProt O43283)
# [19] = target: Mitogen-activated protein kinase kinase kinase 1 (Homo sapiens) (UniProt Q13233)
# [20] = target: Serine/threonine-protein kinase MARK2 (Homo sapiens, UniProt Q7KZI7)
# Chain of Serine/threonine-protein kinase MARK2 (Q7KZI7 whole entry): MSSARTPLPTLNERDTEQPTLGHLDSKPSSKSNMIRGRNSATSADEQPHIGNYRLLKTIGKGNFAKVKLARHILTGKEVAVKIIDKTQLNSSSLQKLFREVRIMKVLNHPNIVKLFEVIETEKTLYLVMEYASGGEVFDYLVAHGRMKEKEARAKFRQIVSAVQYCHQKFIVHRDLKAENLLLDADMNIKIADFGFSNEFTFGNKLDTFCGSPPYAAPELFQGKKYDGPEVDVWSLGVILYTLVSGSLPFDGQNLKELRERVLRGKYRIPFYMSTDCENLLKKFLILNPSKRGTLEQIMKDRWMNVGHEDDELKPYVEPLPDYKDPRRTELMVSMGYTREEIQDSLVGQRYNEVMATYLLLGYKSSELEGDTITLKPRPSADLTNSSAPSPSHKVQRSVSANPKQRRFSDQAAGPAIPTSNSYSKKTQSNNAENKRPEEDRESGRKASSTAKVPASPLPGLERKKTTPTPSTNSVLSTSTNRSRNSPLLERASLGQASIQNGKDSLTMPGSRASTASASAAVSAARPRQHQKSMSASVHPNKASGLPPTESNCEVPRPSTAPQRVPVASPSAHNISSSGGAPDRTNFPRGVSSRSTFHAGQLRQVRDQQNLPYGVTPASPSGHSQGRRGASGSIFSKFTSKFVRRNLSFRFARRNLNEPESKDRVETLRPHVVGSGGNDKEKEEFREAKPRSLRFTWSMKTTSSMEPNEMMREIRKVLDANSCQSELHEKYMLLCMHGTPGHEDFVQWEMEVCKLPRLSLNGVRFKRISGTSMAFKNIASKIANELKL
# [21] = target: Tyrosine-protein kinase Mer (Homo sapiens) (UniProt Q12866)
# [22] = target: MAP kinase-interacting serine/threonine-protein kinase 2 (Homo sapiens) (UniProt Q9HBH9)
# [23] = target: Mitogen-activated protein kinase kinase kinase 11 (Homo sapiens) (UniProt Q16584)
# [24] = target: Serine/threonine-protein kinase 4 (Homo sapiens) (UniProt Q13043)
# [25] = target: Serine/threonine-protein kinase 24 (Homo sapiens) (UniProt Q9Y6E0)
# Chain of Serine/threonine-protein kinase 24 (Homo sapiens) (Q9Y6E0 whole entry, looked up): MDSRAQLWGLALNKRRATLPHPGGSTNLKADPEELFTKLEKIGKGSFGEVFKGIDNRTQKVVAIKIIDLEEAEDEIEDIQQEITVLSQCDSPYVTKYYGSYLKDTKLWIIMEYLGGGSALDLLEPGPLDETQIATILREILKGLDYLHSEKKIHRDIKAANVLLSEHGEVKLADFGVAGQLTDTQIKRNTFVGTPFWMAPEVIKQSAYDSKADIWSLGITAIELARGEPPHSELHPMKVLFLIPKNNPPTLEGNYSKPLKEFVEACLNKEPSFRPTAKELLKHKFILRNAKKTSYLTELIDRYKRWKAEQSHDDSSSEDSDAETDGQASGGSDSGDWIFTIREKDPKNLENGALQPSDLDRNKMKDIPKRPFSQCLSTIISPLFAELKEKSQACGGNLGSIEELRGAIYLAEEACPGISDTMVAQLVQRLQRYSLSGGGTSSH
# [26] = target: Myosin light chain kinase family member 4 (Homo sapiens) (UniProt Q86YV6)
# [27] = target: Serine/threonine-protein kinase NLK (Homo sapiens) (UniProt Q9UBE8)
# Chain of Serine/threonine-protein kinase NLK (Homo sapiens) (Q9UBE8 whole entry): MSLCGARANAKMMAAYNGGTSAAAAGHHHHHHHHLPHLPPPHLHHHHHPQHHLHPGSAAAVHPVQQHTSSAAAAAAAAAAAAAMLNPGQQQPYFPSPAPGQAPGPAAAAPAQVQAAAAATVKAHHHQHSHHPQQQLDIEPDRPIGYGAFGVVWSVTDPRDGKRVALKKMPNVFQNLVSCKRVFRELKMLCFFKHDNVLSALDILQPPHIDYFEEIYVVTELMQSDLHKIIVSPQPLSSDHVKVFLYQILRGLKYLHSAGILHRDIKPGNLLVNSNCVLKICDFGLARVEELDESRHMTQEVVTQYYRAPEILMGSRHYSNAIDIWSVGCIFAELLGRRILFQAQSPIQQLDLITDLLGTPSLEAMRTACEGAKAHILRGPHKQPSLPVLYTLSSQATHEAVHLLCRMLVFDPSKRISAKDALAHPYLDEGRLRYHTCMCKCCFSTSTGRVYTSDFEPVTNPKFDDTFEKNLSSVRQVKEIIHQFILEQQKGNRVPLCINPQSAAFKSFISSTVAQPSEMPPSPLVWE
# [28] = target: Serine/threonine-protein kinase PAK 6 (Homo sapiens) (UniProt Q9NQU5)
# [29] = target: Platelet-derived growth factor receptor alpha (Homo sapiens) (UniProt P16234)
# [30] = target: Cyclin-dependent kinase 14 (Homo sapiens) (UniProt O94921)
# [31] = target: Membrane-associated tyrosine- and threonine-specific cdc2-inhibitory kinase (Homo sapiens) (UniProt Q99640)
# [32] = target: Protein kinase C epsilon type (Homo sapiens) (UniProt Q02156)
# [33] = target: Proto-oncogene tyrosine-protein kinase receptor Ret (Homo sapiens) (UniProt P07949)
# [34] = target: SNF-related serine/threonine-protein kinase (Homo sapiens) (UniProt Q9NRH2)
# [35] = target: Tyrosine-protein kinase Srms (Homo sapiens) (UniProt Q9H3Y6)
# [36] = target: SRSF protein kinase 1 (Homo sapiens) (UniProt Q96SB4)
# [37] = target: Serine/threonine-protein kinase 35 (Homo sapiens) (UniProt Q8TDR2)
# [38] = target: Serine/threonine-protein kinase 36 (Homo sapiens) (UniProt Q9NRP7)
# [39] = target: TGF-beta receptor type-1 (Homo sapiens) (UniProt P36897)
# [40] = target: Tyrosine-protein kinase receptor TYRO3 (Homo sapiens) (UniProt Q06418)
# Chain of Tyrosine-protein kinase receptor TYRO3 (Homo sapiens) (Q06418 whole entry): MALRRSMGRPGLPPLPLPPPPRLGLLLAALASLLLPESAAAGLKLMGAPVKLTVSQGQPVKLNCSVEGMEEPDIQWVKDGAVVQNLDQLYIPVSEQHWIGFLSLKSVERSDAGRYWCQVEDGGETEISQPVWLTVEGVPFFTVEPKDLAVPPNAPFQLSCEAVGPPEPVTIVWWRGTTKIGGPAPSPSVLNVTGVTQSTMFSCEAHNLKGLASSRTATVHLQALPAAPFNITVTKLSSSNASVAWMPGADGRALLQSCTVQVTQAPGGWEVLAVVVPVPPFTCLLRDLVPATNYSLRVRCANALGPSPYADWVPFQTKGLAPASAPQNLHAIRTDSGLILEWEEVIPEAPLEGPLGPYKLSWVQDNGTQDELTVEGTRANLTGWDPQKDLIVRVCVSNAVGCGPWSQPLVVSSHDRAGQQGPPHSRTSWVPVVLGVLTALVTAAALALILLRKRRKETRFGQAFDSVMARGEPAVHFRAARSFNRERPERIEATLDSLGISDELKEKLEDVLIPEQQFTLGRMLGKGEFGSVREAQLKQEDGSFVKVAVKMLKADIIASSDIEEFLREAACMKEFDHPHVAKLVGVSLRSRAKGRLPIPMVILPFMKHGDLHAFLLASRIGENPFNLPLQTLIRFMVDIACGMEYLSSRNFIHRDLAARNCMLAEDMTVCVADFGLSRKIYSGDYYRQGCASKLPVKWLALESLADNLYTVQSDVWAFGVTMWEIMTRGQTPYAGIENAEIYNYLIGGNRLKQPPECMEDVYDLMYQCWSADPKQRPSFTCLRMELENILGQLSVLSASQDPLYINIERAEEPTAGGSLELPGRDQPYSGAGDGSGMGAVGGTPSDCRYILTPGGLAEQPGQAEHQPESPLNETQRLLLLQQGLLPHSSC
# [41] = target: Serine/threonine-protein kinase 32A (Homo sapiens) (UniProt Q8WU08)
# Chain of Serine/threonine-protein kinase 32A (Homo sapiens) (Q8WU08 whole entry): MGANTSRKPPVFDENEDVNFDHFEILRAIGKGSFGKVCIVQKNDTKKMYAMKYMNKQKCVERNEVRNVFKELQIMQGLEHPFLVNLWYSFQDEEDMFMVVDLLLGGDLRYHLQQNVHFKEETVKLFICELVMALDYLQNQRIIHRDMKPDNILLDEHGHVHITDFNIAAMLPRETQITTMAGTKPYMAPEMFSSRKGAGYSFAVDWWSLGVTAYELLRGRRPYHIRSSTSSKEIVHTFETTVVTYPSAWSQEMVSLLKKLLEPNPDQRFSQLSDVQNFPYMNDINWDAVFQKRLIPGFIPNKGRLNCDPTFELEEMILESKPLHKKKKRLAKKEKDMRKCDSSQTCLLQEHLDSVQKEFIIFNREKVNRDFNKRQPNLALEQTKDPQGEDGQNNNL
# [42] = target: Tyrosine-protein kinase Yes (Homo sapiens) (UniProt P07947)
# Chain of Tyrosine-protein kinase Yes (Homo sapiens) (P07947 2-543 limits assumed): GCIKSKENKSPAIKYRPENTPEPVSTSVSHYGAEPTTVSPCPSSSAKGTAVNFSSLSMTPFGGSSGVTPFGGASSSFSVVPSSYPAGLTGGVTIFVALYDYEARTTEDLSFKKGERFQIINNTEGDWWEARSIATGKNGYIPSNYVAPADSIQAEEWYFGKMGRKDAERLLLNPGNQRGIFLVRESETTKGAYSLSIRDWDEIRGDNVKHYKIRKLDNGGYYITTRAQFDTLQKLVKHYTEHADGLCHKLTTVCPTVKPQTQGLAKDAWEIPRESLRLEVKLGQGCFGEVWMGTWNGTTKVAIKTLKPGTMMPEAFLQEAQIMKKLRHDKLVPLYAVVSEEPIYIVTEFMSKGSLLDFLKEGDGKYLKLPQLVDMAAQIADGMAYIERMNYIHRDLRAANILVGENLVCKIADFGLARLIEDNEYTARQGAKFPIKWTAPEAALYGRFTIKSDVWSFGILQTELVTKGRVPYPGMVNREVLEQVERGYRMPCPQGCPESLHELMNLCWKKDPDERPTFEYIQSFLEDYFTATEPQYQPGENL
# [43] = target: Mitogen-activated protein kinase kinase kinase 19 (Homo sapiens) (UniProt Q56UN5)
# [44] = target: 5-hydroxytryptamine receptor 1D (Homo sapiens) (UniProt P28221); details: Compound concentration 10.0 uM
# [45] = target: 5-hydroxytryptamine receptor 7 (Homo sapiens) (UniProt P34969); details: Compound concentration 10.0 uM
# [46] = target: Muscarinic acetylcholine receptor M2 (Homo sapiens) (UniProt P08172); details: Compound concentration 10.0 uM
# [47] = Compound concentration 1000.0 nM
# [48] = Compound concentration 100.0 nM
# Chain of Tyrosine-protein kinase ABL1 (Homo sapiens), P00519 [F317I] (P00519 whole entry F317I): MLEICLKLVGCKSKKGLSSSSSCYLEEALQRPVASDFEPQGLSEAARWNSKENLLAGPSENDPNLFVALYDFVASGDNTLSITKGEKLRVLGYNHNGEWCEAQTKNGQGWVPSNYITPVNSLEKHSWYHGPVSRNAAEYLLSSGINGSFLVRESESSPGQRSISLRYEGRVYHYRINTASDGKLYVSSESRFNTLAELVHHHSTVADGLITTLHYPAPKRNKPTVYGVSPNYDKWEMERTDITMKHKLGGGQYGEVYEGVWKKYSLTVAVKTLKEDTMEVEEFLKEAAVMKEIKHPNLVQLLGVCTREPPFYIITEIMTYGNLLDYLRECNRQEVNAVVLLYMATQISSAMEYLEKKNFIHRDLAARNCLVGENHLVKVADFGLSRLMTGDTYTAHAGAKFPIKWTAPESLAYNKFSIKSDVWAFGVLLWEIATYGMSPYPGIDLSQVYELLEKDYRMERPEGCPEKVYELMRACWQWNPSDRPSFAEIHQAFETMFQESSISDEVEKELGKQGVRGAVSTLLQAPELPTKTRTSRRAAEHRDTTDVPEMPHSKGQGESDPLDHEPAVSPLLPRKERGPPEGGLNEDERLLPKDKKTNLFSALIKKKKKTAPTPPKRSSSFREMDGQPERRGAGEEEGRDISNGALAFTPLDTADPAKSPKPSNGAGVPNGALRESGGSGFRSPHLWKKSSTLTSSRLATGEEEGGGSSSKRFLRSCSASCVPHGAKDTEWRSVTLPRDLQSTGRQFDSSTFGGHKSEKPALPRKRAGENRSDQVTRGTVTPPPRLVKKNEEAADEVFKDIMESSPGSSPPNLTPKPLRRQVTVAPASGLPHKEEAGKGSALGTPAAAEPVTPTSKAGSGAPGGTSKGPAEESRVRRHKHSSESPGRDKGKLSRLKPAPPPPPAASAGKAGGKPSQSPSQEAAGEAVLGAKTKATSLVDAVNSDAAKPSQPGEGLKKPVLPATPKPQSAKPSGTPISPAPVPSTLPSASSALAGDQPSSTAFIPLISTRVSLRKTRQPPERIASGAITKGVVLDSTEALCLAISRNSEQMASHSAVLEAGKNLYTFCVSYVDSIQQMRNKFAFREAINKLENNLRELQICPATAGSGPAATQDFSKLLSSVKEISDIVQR
compound,measurement,setting,value
C[C@H](NC(=O)Nc1cc2[nH]ncc2c(CO)n1)c1ccccn1 [ERKi-NC],residual activity,[1]; [47],81.4%
same,residual activity,[2]; [47],100%
same,residual activity,[3]; [47],100%
same,residual activity,[4]; [47],85.4%
same,residual activity,[5]; [47],100%
same,residual activity,[6]; [47],79%
same,residual activity,[7]; [47],89.8%
same,residual activity,[8]; [47],100%
same,residual activity,[9]; [47],100%
same,residual activity,[10]; [47],94.3%
same,residual activity,[11]; [47],100%
same,residual activity,[12]; [47],100%
same,residual activity,[13]; [47],100%
same,residual activity,[14]; [47],85.1%
same,residual activity,[15]; [47],100%
same,residual activity,[16]; [47],81.5%
same,residual activity,[17]; [47],96%
same,residual activity,[18]; [47],100%
same,residual activity,[19]; [47],95.1%
same,residual activity,[20]; [47],100%
same,residual activity,[21]; [47],100%
same,residual activity,[22]; [47],82.6%
same,residual activity,[23]; [47],87.7%
same,residual activity,[24]; [47],100%
same,residual activity,[25]; [47],98%
same,residual activity,[26]; [47],100%
same,residual activity,[27]; [47],66.3%
same,residual activity,[28]; [47],100%
same,residual activity,[29]; [47],100%
same,residual activity,[30]; [47],100%
same,residual activity,[31]; [47],100%
same,residual activity,[32]; [47],100%
same,residual activity,[33]; [47],100%
same,residual activity,[34]; [47],100%
same,residual activity,[35]; [47],84%
same,residual activity,[36]; [47],100%
same,residual activity,[37]; [47],100%
same,residual activity,[38]; [47],97.3%
same,residual activity,[39]; [47],60.8%
same,residual activity,[40]; [47],59.2%
same,residual activity,[41]; [47],100%
same,residual activity,[42]; [47],100%
same,residual activity,[43]; [47],100%
same,inhibition,[44],39.9%
same,inhibition,[45],33.4%
same,inhibition,[46],14.2%
C[C@@H](NC(=O)Nc1cc2[nH]ncc2c(CO)n1)c1ccccc1 [ERKi],residual activity,[1]; [48],83.4%
same,residual activity,[2]; [48],100%
same,residual activity,[3]; [48],80.2%
same,residual activity,[4]; [48],89.9%
same,residual activity,[5]; [48],100%
same,residual activity,[6]; [48],45.7%
same,residual activity,[7]; [48],100%
same,residual activity,[8]; [48],95.4%
same,residual activity,[9]; [48],83%
same,residual activity,[10]; [48],98.5%
same,residual activity,[11]; [48],59.3%
same,residual activity,[12]; [48],87.9%
same,residual activity,[13]; [48],81.4%
same,residual activity,[14]; [48],96.2%
same,residual activity,[15]; [48],76.1%
same,residual activity,[16]; [48],94.8%
same,residual activity,[17]; [48],100%
same,residual activity,[18]; [48],100%
same,residual activity,[19]; [48],100%
same,residual activity,[20]; [48],100%
same,residual activity,[21]; [48],100%
same,residual activity,[22]; [48],90.6%
same,residual activity,[23]; [48],100%
same,residual activity,[24]; [48],100%
same,residual activity,[25]; [48],100%
same,residual activity,[26]; [48],99.5%
same,residual activity,[27]; [48],100%
same,residual activity,[28]; [48],63.5%
same,residual activity,[29]; [48],87.3%
same,residual activity,[30]; [48],100%
same,residual activity,[31]; [48],99.6%
same,residual activity,[32]; [48],85%
same,residual activity,[33]; [48],92.6%
same,residual activity,[34]; [48],100%
same,residual activity,[35]; [48],87.1%
same,residual activity,[36]; [48],85.5%
same,residual activity,[37]; [48],91.1%
same,residual activity,[38]; [48],88.4%
same,residual activity,[39]; [48],100%
same,residual activity,[40]; [48],100%
same,residual activity,[41]; [48],100%
same,residual activity,[42]; [48],96.9%
same,residual activity,[43]; [48],86.2%
same,inhibition,[44],1.59%
same,inhibition,[45],21.8%
same,inhibition,[46],-3.22%
